Test results: patent US20220162215A1, “COMPOSITIONS AND METHODS OF USING THE SAME FOR TREATMENT OF NEURODEGENERATIVE AND MITOCHONDRIAL DISEASE” (MITOKININ, INC., priority 2019, published 2022)
Where two headings read alike, the source gives them in different places.

Legend:
[1] = test system: α-synuclein; assay: Preformed α-syn amyloid fibril (PFF) mouse model; assay type: in vivo; conditions: oral dosing; for all analyzed species of α-synuclein: 50 mg/kg max
Method: Animals. C57BL6 mice were obtained from the Jackson Laboratories.
Injection material and stereotaxic injections. Purification of recombinant α-synuclein proteins and in vitro fibril assembly was performed as previously described (K. C. Luk et al., Intracerebral inoculation of pathological α-synuclein initiates a rapidly progressive neurodegenerative α-synucleinopathy in mice. J. Exp. Med. 209, 975 (2012)) from full-length wildtype mouse α-synuclein (5 mg/mL). Assembly reactions were agitated in an Eppendorf orbital mixer (1,000 rpm at 37° C.) and α-synuclein pre-formed fibrils (PFFs) harvested after 5 d. Preparations were diluted in sterile PBS and sonicated briefly with a hand-held probe sonicator (Fisher Scientific Model 120) prior to injection. Mice between 2 and 3 months of age were anesthetized with ketamine hydrochloride (100 mg/kg, i.p.) and xylazine (10 mg/kg, i.p.) and stereotaxically injected in one hemisphere of the striatum with PFFs (5 μg). Control animals received sterile PBS. To target the striatum, a single needle insertion (co-ordinates: +1.0 mm relative to Bregma, +2.0 mm from midline) into the right forebrain was used (+2.6 mm beneath the dura). Injections were performed using a motorized injector at a rate of 0.2 μL per min (2.5 μL total per site) with the needle in place for >5 min at each target. Animals were monitored regularly following recovery from surgery. Starting 7 days after surgery, a daily oral dose of EP-0035985 or vehicle control was administered, continuing for the duration of the study. The animals were sacrificed at 30 days post injection by overdose with isofluorane, and their brains removed following transcardial perfusion with PBS. Brains were sectioned into striatum and ventral midbrain sections, and immediately frozen and stored at −80° C. until used.
Biochemical analysis. Dissected brain regions of interest were extracted as in Yun, P. S., et al Nat Med. 2018 July; 24(7):931-938. Briefly, sections were homogenized in brain lysis buffer containing 10 mM Tris-HCl, pH 7.4, 150 mM NaCl, 5 mM EDTA, 0.5% IGEPAL® CA-630 (Nonidet P-40), 1× Halt™ Protease and Phosphatase Inhibitor Cocktail. 0.2 mL of buffer was used per tissue section. Samples were homogenized using a mortar pestle and then 0.3 mL brain lysis buffer was added before clearing at 300×g for 3 minutes at 4° C. Supernatant was then transferred to a new tube and cleared at 22,000×g for 20 min at 4° C. The supernatant should be transferred and the pellet washed with 0.3 mL brain lysis buffer before repeating the clearing step. Subsequent to this the pellet should be further homogenized (sonicating for 20 s at 20% amplitude on ice) in 0.2 mL per sample SDS-Brain lysis buffer containing 10 mM Tris-HCl, pH 7.4, 150 mM NaCl, 5 mM EDTA, 0.5% Nonidet P-40, 1% SDS, 0.5% sodium deoxycholate. Protein concentrations were determined using the BCA assay (Pierce) and samples (10 μg total protein) were separated on SDS-polyacrylamide gels (4-20% gradient) and transferred onto nitrocellulose membranes. Blots were blocked in 5% BSA in TBST and probed using various primary antibodies. Target antigens were detected using an Odyssey FC scanner (LiCor) following incubation with the appropriate infrared secondary antibodies.

[2] = In vivo pharmacokinetic properties (Table 7)
[3] = Visual inspection of crystallization; assay type: physicochemical; set-up: key: 1: yes crystals; 0: no crystals; conditions: Tables 5A-5D
Method: Briefly, the Hela MKYP (Mito-Keima/YFP-Parkin) cells were seeded at 10K cells/well. EP/MTK compounds were added at seeding (cells were still in suspension). The cells were incubated with the EP/MTK compounds for 16 hours, then 1 μM FCCP/oligomycin was added for 6 hours. Prior to harvesting, cells were scored by eye under 20× magnification for the presence or absence of crystalline or aggregated compound, or round cells.

[4] = test system: pS129 α-synuclein; assay: pS129 α-synuclein in human iPSC derived neurons; assay type: cell-based; conditions: FIG. 21
[5] = Tissue distribution, mouse; assay type: in vivo
Method: Referring to Tables 8A-C below, an in vivo summary of EP-0035985 IV at 1 mg/kg (8A), PO 10 mg/kg (8B), and a tissue distribution, mouse (8C) is shown below.

[6] = test system: HeLa MKYP cells; assay: Toxicity / cell death measured by DAPI staining (take-up); assay type: cell-based
Method: H2O2 treatment was performed as a control for cell death as measured by DAPI staining.
(§1) Briefly, HeLa MKYP cells were plated at 10,000 cells/well in 96 well plates along with compounds at various concentrations. Following 16 hrs of incubation, cells were treated with 1 uM FCCP/oligomycin for 6 hours, then analyzed via FACS for the presence of mitochondria in lysosomes (as determined by an emissions spectrum shift from the pH-sensitive mtKeima tag).

[7] = test system: mitotoxicity; assay: Mitotox safety margin (therapeutic window); assay type: cell-based
[8] = test system: HeLa MKYP cells; assay: Human mitophagy assay (HeLa MKYP, mtKeima FACS, FCCP/oligomycin); assay type: cell-based; conditions: for EC50: Homo sapiens, HeLa
Method: as §1, with “tag). Examples are shown in FIG. 1 through FIG. 13 below.” for “tag).”

FC(F)(F)c1cc2c(NC3CCCc4ccccc43)ncnc2[nH]1 (centres unmarked) [Compound 15]
all analyzed species of α-synuclein ([1]; contralateral striatum, FIG. 30): drives a decrease in all analyzed species of α-synuclein at 50 mg/kg max | all analyzed species of α-synuclein ([1]; ipsilateral striatum, FIG. 29): drives a decrease in all analyzed species of α-synuclein at 50 mg/kg max | c-terminal truncation of α-synuclein (14 kDA) ([1]; ipsilateral striatum, FIG. 26): drives a decrease in c-terminal truncation of α-synuclein (14 kDA) | pS129 monomer of α-synuclein ([1]; ipsilateral striatum, FIG. 27): drives a decrease in pS129 monomer of α-synuclein | total monomer of α-synuclein ([1]; ipsilateral striatum, FIG. 28): drives a decrease in total monomer of α-synuclein | all analyzed species of α-synuclein ([1]; ventral midbrain, FIG. 31): drives a decrease in all analyzed species of α-synuclein at 50 mg/kg max | AUC (obs) ([2]; IV (1 mg/kg)): 1.4 µM·h | Cmax ([2]; IV (1 mg/kg)): 1450 nM | Cmax ([2]; PO (10 mg/kg)): 1080 nM | F % ([2]; PO (10 mg/kg)): 17.4% | AUC (obs) ([2]; PO (50 mg/kg)): 27.4 µM·h | Cmax ([2]; PO (50 mg/kg)): 9800 nM | F % ([2]; PO (50 mg/kg)): 37.9% | T1/2 ([2]; PO (50 mg/kg)): 3.9 h | bioavailability ([2]; in vivo dosing, FIG. 23 and Table 7): good bioavailability | AUC(0-inf) ([2]; mouse, in vivo, IV (1 mg/kg)): 1.5 µM·h | half-life ([2]; mouse, in vivo, IV (1 mg/kg)): 1.4 h | AUC ([2]; mouse, in vivo, PO (10 mg/kg)): 2.4 µM·h | AUC(0-inf) ([2]; mouse, in vivo, PO (10 mg/kg)): 2.6 µM·h | half-life ([2]; mouse, in vivo, PO (10 mg/kg)): 2 h | AUC(0-inf) ([2]; mouse, in vivo, PO (50 mg/kg)): 35.5 µM·h | Visual inspection of crystallization ([3]; 1.6 μM): 0 | Visual inspection of crystallization ([3]; 3.1 μM): 0 | Visual inspection of crystallization ([3]; 6.3 μM): 0 | Visual inspection of crystallization ([3]; 12.5 μM): 0 | Visual inspection of crystallization ([3]; 25.0 μM): 0 | Visual inspection of crystallization ([3]; 50.0 μM): 0 | pS129 α-synuclein [4]: significantly reduces pS129 α-synuclein | concentration at 0.5 h ([5]; brain, dose 10 mg/kg, read-out: Brain 0.5 h): 526 ng/g | concentration at 1 h ([5]; brain, dose 10 mg/kg, read-out: Brain 1 h): 737 ng/g | concentration at 2 h ([5]; brain, dose 10 mg/kg, read-out: Brain 2 h): 435 ng/g | concentration at 0.5 h ([5]; brain, dose 50 mg/kg, read-out: Brain 0.5 h): 3340 ng/g | concentration at 1 h ([5]; brain, dose 50 mg/kg, read-out: Brain 1 h): 6370 ng/g | concentration at 2 h ([5]; brain, dose 50 mg/kg, read-out: Brain 2 h): 3980 ng/g | concentration at 0.5 h ([5]; kidney, dose 10 mg/kg, read-out: Kidney 0.5): 1050 ng/g | concentration at 1 h ([5]; kidney, dose 10 mg/kg, read-out: Kidney 1): 1290 ng/g | concentration at 2 h ([5]; kidney, dose 10 mg/kg, read-out: Kidney 2): 893 ng/g | concentration at 0.5 h ([5]; kidney, dose 50 mg/kg, read-out: Kidney 0.5): 6430 ng/g | concentration at 1 h ([5]; kidney, dose 50 mg/kg, read-out: Kidney 1): 11500 ng/g | concentration at 2 h ([5]; kidney, dose 50 mg/kg, read-out: Kidney 2): 7480 ng/g | concentration at 0.5 h ([5]; plasma, dose 10 mg/kg, read-out: Plasma 0.5 h): 372 ng/g | concentration at 1 h ([5]; plasma, dose 10 mg/kg, read-out: Plasma 1 h): 276 ng/g | concentration at 2 h ([5]; plasma, dose 10 mg/kg, read-out: Plasma 2 h): 146 ng/g | concentration at 0.5 h ([5]; plasma, dose 50 mg/kg, read-out: Plasma 0.5 h): 1900 ng/g | concentration at 1 h ([5]; plasma, dose 50 mg/kg, read-out: Plasma 1 h): 2080 ng/g | concentration at 2 h ([5]; plasma, dose 50 mg/kg, read-out: Plasma 2 h): 1420 ng/g | Toxicity (% positive for DAPI takeup @ 50 μM) ([6]; Table 2): 2.1% | Max cell death at 25 uM compound, 1 uM FO ([6]; Table 3 Supplement B, 25 uM compound, 1 uM FO): 10.7% | Cell death at 25 μM (no FO) ([6]; Table 3 Supplement B, 25 μM, no FO): 2.59% | Toxicity (% positive for DAPI takeup @ 50 μM) ([6]; Table 4): 2.4% | Mitotox safety margin (Therapeutic window) ([7]; class of the Ratio): ++++ (ratio 30<) | Ratio** ([7]; highest concentration with no observable mitotoxicity (μM) divided by the EC50 (μM) of the compound): 40.02 | EC50 ([8]; Table 3 Supplement B, read-out: Mitophagy EC50 (HeLa mKeima assay)): 440 ± 120 nM | EC50 ([8]; Table 4, read-out: Potency (EC50 Max Mitophagy)): 440 ± 120 nM | mitophagy as measured by FACS mKeima ([8]; PINK1wt vs PINK1ko cell lines, FIG. 19): increases mitophagy as measured by FACS mKeima in PINK1^wt but not PINK1^ko cell lines | Potency at 1 μM F/O toxin* ([8]; Table 2, % activation of mitophagy at 1.6 μM treatment of the compound): 55.5%
